Results as given in patent US5610143A, “Antibiotics GE 37468 A, B and C” (Gruppo Lepetit S.p.A., priority 1995, dated 1997).

Tests used:
[1] = test system: Staphylococcus aureus Smith; test: MIC by broth microdilution; type: cell-based; conditions: Iso-Sensitest broth, inoculum 10^4 CFU/ml, 20-24 h, 37° C.
[2] = test system: Enterococcus faecalis ATCC 7080; test: MIC by broth microdilution; type: cell-based; conditions: Iso-Sensitest broth, inoculum 10^4 CFU/ml, 20-24 h, 37° C.
[3] = test system: Propionibacterium acnes ATCC 6919; test: MIC by broth microdilution; type: cell-based; conditions: Wilkins-Chalgren broth, inoculum 10^5, 48 h, 37° C., N2:CO2:H2 (80:10:10)
[4] = test system: Staphylococcus aureus L165; conditions: Iso-Sensitest broth, inoculum 10^4 CFU/ml, 20-24 h, 37° C.
[5] = test system: Staphylococcus epidermidis ATCC 12228; conditions: Iso-Sensitest broth, inoculum 10^4 CFU/ml, 20-24 h, 37° C.
[6] = test system: Staphylococcus haemolyticus L602; conditions: Iso-Sensitest broth, inoculum 10^4 CFU/ml, 20-24 h, 37° C.
[7] = test system: Clostridium perfringens L290; conditions: Wilkins-Chalgren broth, inoculum 10^5, 48 h, 37° C., N2:CO2:H2 (80:10:10)
[8] = test system: Bacteroides fragiles ATCC 25285; conditions: Wilkins-Chalgren broth, inoculum 10^5, 48 h, 37° C., N2:CO2:H2 (80:10:10)
[9] = test system: Neisseria gonorrhoeae L997; conditions: GC Base broth +1% IsoVitalex, inoculum 10^4 CFU/ml, 48 h, 37° C., 5% CO2 in air
[10] = test system: Haemophilus influenzae ATCC 19418; conditions: Brain Heart Infusion broth +1% Supplement C, inoculum 10^4 CFU/ml, 48 h, 37° C., 5% CO2 in air
Escherichia coli L47 = conditions: Iso-Sensitest broth, inoculum 10^4 CFU/ml, 20-24 h, 37° C.
[11] = test system: Pseudomonas aeruginosa ATCC 10145; conditions: Iso-Sensitest broth, inoculum 10^4 CFU/ml, 20-24 h, 37° C.
[12] = test system: Proteus vulgaris ATCC 881; conditions: Iso-Sensitest broth, inoculum 10^4 CFU/ml, 20-24 h, 37° C.
Candida albicans L145 = conditions: phosphate buffered Yeast Nitrogen Base broth with glucose and L-asparagine, inoculum 10^4 CFU/ml, 20-24 h, 37° C.

Cc1oc2nc1C(=O)NC(CC(N)=O)c1nc(cs1)C(=O)NC(Cc1ccccc1)C1=NC(CS1)C(=O)NC(Cc1ccc(O)cc1)C(=O)N1C(O)CC(C)C1c1nc(cs1)-c1nc(cs1)-c1nc(-c3nc(C(N)=O)cs3)ccc1-2 (stereo not shown) [GE37468B]
M.I.C. [1]: 0.03 microgram/ml
M.I.C. [2]: 0.03 microgram/ml
M.I.C. [3]: 0.016 microgram/ml
M.I.C. [4]: 0.03 microgram/ml
M.I.C. [5]: 0.06 microgram/ml
M.I.C. [6]: 0.13 microgram/ml
M.I.C. [7]: 0.016 microgram/ml
M.I.C. [8]: > 128 microgram/ml
M.I.C. [9]: > 128 microgram/ml
M.I.C. [10]: > 128 microgram/ml
M.I.C. (Escherichia coli L47): > 128 microgram/ml
M.I.C. [11]: > 128 microgram/ml
M.I.C. [12]: > 128 microgram/ml
M.I.C. (Candida albicans L145): > 128 microgram/ml

C=C(NC(=O)c1csc(-c2ccc3c(n2)-c2csc(n2)-c2csc(n2)C2C(C)CC(O)N2C(=O)C(Cc2ccc(O)cc2)NC(=O)C2CSC(=N2)C(Cc2ccccc2)NC(=O)c2csc(n2)C(CC(N)=O)NC(=O)c2nc-3oc2C)n1)C(N)=O (stereo not shown) [GE37468C]
M.I.C. [1]: 0.03 microgram/ml
M.I.C. [2]: 0.03 microgram/ml
M.I.C. [3]: 0.016 microgram/ml
M.I.C. [4]: 0.03 microgram/ml
M.I.C. [5]: 0.25 microgram/ml
M.I.C. [6]: 0.13 microgram/ml
M.I.C. [7]: 0.016 microgram/ml
M.I.C. [8]: > 128 microgram/ml
M.I.C. [9]: > 128 microgram/ml
M.I.C. [10]: > 128 microgram/ml
M.I.C. (Escherichia coli L47): > 128 microgram/ml
M.I.C. [11]: > 128 microgram/ml
M.I.C. [12]: > 128 microgram/ml
M.I.C. (Candida albicans L145): > 128 microgram/ml
